According to the supplement of paper PMC13380429:

What was measured:
[1] = tested on: A549-ACE2; experiment: drug-induced phospholipidosis relative to tamoxifen; higher = more phospholipidosis
[2] = tested on: A549-ACE2 infected with SARS-CoV-2; experiment: cell count relative to DMSO; higher = less toxic; conditions: 24 h
[3] = tested on: Vero E6; experiment: drug sensitivity score (DSS) for viability; higher = more toxic; extreme values may be limits of the assay; conditions: 72 h
[4] = tested on: U2OS; experiment: as above; conditions: 72 h
[5] = tested on: Calu-3; experiment: as above; conditions: 72 h
[6] = tested on: HepG2; experiment: as above; conditions: 72 h
[7] = tested on: Caco-2; experiment: as above; conditions: 72 h
[8] = tested on: A549-ACE2; experiment: phospholipidosis EC50; higher = less potent phospholipidosis inducer
[9] = tested on: Caco-2; experiment: relative viability EC50 (midpoint between 100% and the lowest measured viability); higher = less toxic; conditions: 72 h
[10] = tested on: Vero E6; experiment: cell viability relative to DMSO; higher = less toxic; conditions: 72 h
[11] = tested on: U2OS; experiment: as above; conditions: 72 h
[12] = tested on: Calu-3; experiment: as above; conditions: 72 h
[13] = tested on: HepG2; experiment: as above; conditions: 72 h
[14] = tested on: Caco-2; experiment: as above; conditions: 72 h
[15] = tested on: A549-ACE2 infected with SARS-CoV-2; experiment: morphology score (similarity to uninfected cells); higher = more like uninfected cells; conditions: 24 h
[16] = tested on: A549-ACE2 infected with SARS-CoV-2; experiment: SARS-CoV-2 infection rate relative to DMSO; higher = more infection; conditions: 24 h
[17] = tested on: Vero E6; experiment: relative viability EC50 (midpoint between 100% and the lowest measured viability); higher = less toxic; conditions: 72 h
[18] = tested on: Calu-3; experiment: as above; conditions: 72 h

Cc1nc(Nc2cnn(C3CCNCC3)c2)nc2c1N(C)C(=O)c1cc3ccccc3cc1N2C [HTH-01-015]
drug-induced phospholipidosis [%], [1]
Conditions	0.3 µM	0.833333 µM	3.33333 µM	6.66667 µM	10 µM	30 µM
24 h	2.9	6.1	51.1	120	118	24.5
48 h	6.71	6.12	41.5	172	169	–
72 h	6.1	4.78	42.6	–	–	–

Conditions	SARS-CoV-2 infection rate [%]	cell count [%]	cell viability [%]	morphology score	phospholipidosis EC50 [µM]
[2], 0.1 µM	–	97	–	–	–
[2], 0.3 µM	–	102	–	–	–
[2], 1 µM	–	103	–	–	–
[2], 3 µM	–	99	–	–	–
[8], 24 h	–	–	–	–	3.28
[8], 48 h	–	–	–	–	3.72
[10], 1 nM	–	–	106	–	–
[10], 10 nM	–	–	106	–	–
[10], 100 nM	–	–	104	–	–
[10], 1000 nM	–	–	98.5	–	–
[10], 10000 nM	–	–	74.1	–	–
[11], 1 nM	–	–	101	–	–
[11], 10 nM	–	–	108	–	–
[11], 100 nM	–	–	100	–	–
[11], 1000 nM	–	–	107	–	–
[11], 10000 nM	–	–	53.1	–	–
[12], 1 nM	–	–	97.1	–	–
[12], 10 nM	–	–	108	–	–
[12], 100 nM	–	–	99.1	–	–
[12], 1000 nM	–	–	108	–	–
[12], 10000 nM	–	–	59.4	–	–
[13], 1 nM	–	–	106	–	–
[13], 10 nM	–	–	89.3	–	–
[13], 100 nM	–	–	101	–	–
[13], 1000 nM	–	–	109	–	–
[13], 10000 nM	–	–	67.7	–	–
[14], 1 nM	–	–	94.7	–	–
[14], 10 nM	–	–	99.7	–	–
[14], 100 nM	–	–	97.7	–	–
[14], 1000 nM	–	–	103	–	–
[14], 10000 nM	–	–	77.7	–	–
[15], 0.1 µM	–	–	–	-0.27	–
[15], 0.3 µM	–	–	–	0.2	–
[15], 1 µM	–	–	–	0.05	–
[15], 3 µM	–	–	–	0.67	–
[16], 0.1 µM	105	–	–	–	–
[16], 0.3 µM	105	–	–	–	–
[16], 1 µM	100	–	–	–	–
[16], 3 µM	77	–	–	–	–

Conditions	drug sensitivity score	relative viability EC50 [µM]
[3]	1.2	–
[4]	2	–
[5]	1.6	–
[6]	1	–
[7]	0.6	–
[9]	–	> 10

COc1cc(COc2cc(N)c(Cl)cc2C(=O)CCC2CCN(CCNS(C)(=O)=O)CC2)cc(OC)c1
drug-induced phospholipidosis [%], [1]
Conditions	0.3 µM	0.833333 µM	3.33333 µM	6.66667 µM	10 µM	30 µM
24 h	7	-3.07	1.58	15.2	28.5	59.3
48 h	8.74	0.25	7.6	19.6	29.2	–
72 h	9.15	2.57	12.6	21.2	34.8	–

Conditions	SARS-CoV-2 infection rate [%]	cell count [%]	cell viability [%]	morphology score	phospholipidosis EC50 [µM]
[2], 0.1 µM	–	97	–	–	–
[2], 0.3 µM	–	102	–	–	–
[2], 1 µM	–	105	–	–	–
[2], 3 µM	–	118	–	–	–
[8], 24 h	–	–	–	–	10.8
[10], 1 nM	–	–	96.8	–	–
[10], 10 nM	–	–	97.8	–	–
[10], 100 nM	–	–	93.3	–	–
[10], 1000 nM	–	–	96.1	–	–
[10], 10000 nM	–	–	29.4	–	–
[11], 1 nM	–	–	98.8	–	–
[11], 10 nM	–	–	96.2	–	–
[11], 100 nM	–	–	100	–	–
[11], 1000 nM	–	–	101	–	–
[11], 10000 nM	–	–	58.7	–	–
[12], 1 nM	–	–	99	–	–
[12], 10 nM	–	–	106	–	–
[12], 100 nM	–	–	94.6	–	–
[12], 1000 nM	–	–	105	–	–
[12], 10000 nM	–	–	98.6	–	–
[13], 1 nM	–	–	95	–	–
[13], 10 nM	–	–	102	–	–
[13], 100 nM	–	–	98.8	–	–
[13], 1000 nM	–	–	92.5	–	–
[13], 10000 nM	–	–	73.1	–	–
[14], 1 nM	–	–	107	–	–
[14], 10 nM	–	–	102	–	–
[14], 100 nM	–	–	95.9	–	–
[14], 1000 nM	–	–	110	–	–
[14], 10000 nM	–	–	88.3	–	–
[15], 0.1 µM	–	–	–	-0.18	–
[15], 0.3 µM	–	–	–	-0.13	–
[15], 1 µM	–	–	–	0.08	–
[15], 3 µM	–	–	–	0.56	–
[16], 0.1 µM	106	–	–	–	–
[16], 0.3 µM	102	–	–	–	–
[16], 1 µM	93	–	–	–	–
[16], 3 µM	69	–	–	–	–

Conditions	drug sensitivity score	relative viability EC50 [µM]
[3]	4.4	–
[4]	2	–
[5]	0	–
[6]	2.1	–
[7]	0	–
[9]	–	> 10
[17]	–	2.74
[18]	–	> 10
